Assay [1] deals with HepG2, Vero, L-02 and Chang liver cell lines. Also on record: method as in PMID 19061932, PMID 22840332. Conditions: in-vitro, ref [7],[11]; cited from earlier work.
In assay [2] the test system is Aeromonas hydrophila. Nature of the assay: Minimum bactericidal concentration (MBC), subculture on nutrient agar. The assay is classed as cell-based. Particulars: least concentration with no growth on agar plates, 24 h. On the procedure:
The preliminary antibacterial activities were obtained for selected compounds against various bacteria, namely: Staphyloccocus aureus ATCC25923 (Gram-positive bacteria), Clostridium perfringen CVCC52,8604 (anaerobes bacteria), Salmonella pullorum (Gram-negative bacteria), Escherichia coli ATCC25922 (Gram negative bacteria) and Aeromonas hydrophila (Gram-negative bacteria) were used in the study. Each strain was cultured in appropriate broth medium. Clostridium perfringen was incubated in an anaerobic chamber. The minimum inhibitory concentration (MIC) for each test compound was estimated using the broth dilution method. The MIC’s was determined for each strain/compound pairs that presented antimicrobial activity. The method was modified from Mohapatra›s methods ([14], [15]). Cell suspensions were prepared in 2 mL of liquid medium with concentrations of various tests of compounds in 15 mL culture tubes by inoculation with 100 μL of 10^6 cfu/mL from each stock. The cultures were incubated at 28 °C or 37 °C for 24 h. Tubes showing no visible turbidity represented the MIC, and subsequently, were inoculated on the right side of the 9cm sterile nutrient agar plates without various test compounds and incubated for 24 h (Clostridium perfringen was incubated in an anaerobic chamber.). […]

For the next assay, the system named is HepG2 cells. Nature of the assay: In-vitro cytotoxicity, MTT cell proliferation assay. The class given is cell-based, human. Particulars: Homo sapiens, HepG2, 24 h, 24 h incubation, concentration reducing viable cells by 50%. On the procedure:
(§1) All test compounds were dissolved in dimethyl sulfoxide (DMSO, Sigma, USA) and then diluted in Dulbecco’s modified Eagle’s medium (DMEM, Gibco, USA) at desired concentrations for cell proliferation analyses or diluted in nutrient broth medium for antimicrobial susceptibility testing respectively. The final concentration of DMSO in the DMEM culture medium was under 0.1% (v:v).
(§2) HepG2 and normal human Chang liver cells were obtained from the Institute of Biochemistry and Cell Biology, Shanghai Institutes for Biological Sciences, Chinese Academy of Sciences (Shanghai, China). HepG2 and normal human Chang liver cells were cultured at 37˚Cwith 5% CO2 in DMEM supplemented with 2% L-glutamine, 10% fetal bovine serum (Gibco, USA), 100 U/mL penicillin and 100 […] (Gibco, USA).
(§3) The methodology for evaluating the cytotoxicity inhibitory activity of various test compounds towards cell proliferation has been described previously ([11], [17]). Cell proliferation inhibitory analyses were carried out using the 3-(4,5-dimethylthiazole-2-yl)-2,5-diphenyl tetrazolium bromide (MTT, Sigma, USA) assay. Briefly, cancers HepG2 and normal human Chang liver cells were harvested and resuspended in fresh growth medium. A 100 μL cell suspension (5 × 10^4 cells/mL) was aliquoted into each well of a 96-well culture plate. After 12 h incubation, the medium was replaced with fresh medium containing various concentrations of test compounds. The cells were then incubated for another 24 h. At the end of exposure, 10 μL of MTT solution (5 mg/mL) was added, and the cells were incubated for 4 h at 37 °C. The cells were treated with 100 μL DMSO, and absorbance was recorded at 570 nm using a microplate ELISA reader (ELX800, Bio-Tek, USA). All experiments were performed at least thrice, and data were presented as the mean of sixplicate wells ± standard deviation (SD). Cell inhibition was calculated as follows:
(§4) (OD of control group − OD of experimental group) / (OD of control group − OD of blank group) ×100%. The IC50 value for a compound was calculated using SPSS.
(In general: Tetrazolium assays rely on reduction of a dye to a coloured formazan, in cell work by metabolically active cells.)

Assay [3] has as its system normal human Chang liver cells. Described as above. Particulars: Homo sapiens, Chang liver, 24 h, 24 h incubation, concentration reducing viable cells by 50%. The assay is classed as cell-based. On the procedure: as §1, §2, §3, §4
Assay [4] has as its system Gram-positive and Gram-negative bacteria. Nature of the assay: Antibacterial activity class based on the MIC results. The class given is cell-based. On the procedure: (§5) The preliminary antibacterial activities were obtained for selected compounds against various bacteria, namely: Staphyloccocus aureus ATCC25923 (Gram-positive bacteria), Clostridium perfringen CVCC52,8604 (anaerobes bacteria), Salmonella pullorum (Gram-negative bacteria), Escherichia coli ATCC25922 (Gram negative bacteria) and Aeromonas hydrophila (Gram-negative bacteria) were used in the study. Each strain was cultured in appropriate broth medium. Clostridium perfringen was incubated in an anaerobic chamber. The minimum inhibitory concentration (MIC) for each test compound was estimated using the broth dilution method. The MIC’s was determined for each strain/compound pairs that presented antimicrobial activity. The method was modified from Mohapatra›s methods ([14], [15]). Cell suspensions were prepared in 2 mL of liquid medium with concentrations of various tests of compounds in 15 mL culture tubes by inoculation with 100 μL of 10^6 cfu/mL from each stock. The cultures were incubated at 28 °C or 37 °C for 24 h. Tubes showing no visible turbidity represented the MIC, and subsequently, were inoculated on the right side of the 9cm sterile nutrient agar plates without various test compounds and incubated for 24 h (Clostridium perfringen was incubated in an anaerobic chamber.). The least concentration, at which no growth was observed, represented the minimum bactericidal concentration (MBC) ([16]).
In this study, activity of quinoxaline-1, 4-dioxides and their deoxygenations was tested against selected Gram-negative bacteria (Escherichia coli, Salmonella pullorum and Aeromonas hydrophila), Gram-positive bacteria (Staphyloccocus aureus and Clostridium perfringen). The in-vitro antibacterial activity was based on the MIC results: Strong antibacterial activity, if MIC is less than 50 μg/mL; Moderate, if MIC is in between 50 and 250 μg/mL; No activity, if MIC is more than 500 μg/mL.

The test system of assay [5] is Clostridium perfringen CVCC52,8604. Nature of the assay: In-vitro antibacterial activity, MIC by broth dilution (anaerobic chamber). The class given is cell-based. Particulars: Clostridium, 24 h. On the procedure: as §1, §5
For orientation: Broth dilution looks for growth in wells or tubes with falling amounts of substance.

The test system of assay [6] is Aeromonas hydrophila. Nature of the assay: In-vitro antibacterial activity, MIC by broth dilution. Conditions: Aeromonas hydrophila; broth dilution, 24 h; read-out: MIC values Aeromonas hydrophila. The class given is cell-based. On the procedure: as §1, §5
The subject of another assay is Salmonella pullorum. The assay is described as above. The class given is cell-based. Conditions: Salmonella enterica, PULLORUM, 24 h. On the procedure:
as §1, §5

Assay [7] relates to Staphyloccocus aureus ATCC25923. Described as above. The assay is classed as cell-based. Conditions: broth dilution, 24 h; read-out: MIC values Staphyloccocus aureus ATCC25923. On the procedure: as §1, §5
In assay [8] the test system is Escherichia coli ATCC25922. The assay is described as above. The assay is classed as cell-based. Conditions: Escherichia coli, ATCC25922; broth dilution, 24 h; read-out: MIC values Escherichia coli ATCC25922. On the procedure: as §1, §5

Broadly, the MBC is the smallest concentration meeting the test's criterion for killing. One may read the IC50 as the concentration that inhibits the measured activity by half. In general, MIC refers to the lowest concentration that inhibits growth of the organism.

SMILES strings stand for the structures. Converted amounts (≈) assume the structure as drawn.

As to `Cc1c(C(=O)NCCO)[n+]([O-])c2ccccc2[n+]1[O-]` [olaquindox, n-(2-hydroxyethyl)-3-methyl-2-quinoxalinecarboxamide 1,4-dioxide, reference compound], the growth inhibitory effects result in assay [1] is “much lower than quinocetone”. The compound further registered an MBC in the assay on Aeromonas hydrophila [2] of 84.2 µg/mL (≈ 320 µM). Further, the IC50 worked out at 893 ± 14.7 µM in the assay on HepG2 cells and 815 ± 31.2 µM in assay [3]. Moreover, the “antibacterial activity against Gram-positive and Gram-negative bacteria” value in assay [4] is “strong or moderate activity”. The MIC in assay [5] came out at 67.3 µg/mL (≈ 256 µM); with Aeromonas hydrophila [6] it was 21 µg/mL (≈ 79.9 µM); against Salmonella pullorum, 84.2 µg/mL (≈ 320 µM); in [7] it was 42.1 µg/mL (≈ 160 µM); in assay [8] it was 21 µg/mL (≈ 79.9 µM).

Values taken from paper PMC5603865, “Synthesis, In-Vitro Activity and Metabolic Properties of Quinocetone and Structurally Similar Compounds” (Iranian Journal of Pharmaceutical Research : IJPR, 2017).
